Assay results as given in PMC7316778 (Nature Communications, 2020).
Values joined by “and” are separate entries in the source; they are usually repeats but may differ in a detail not shown here. Equal entries are not always repeated. Where two headings read alike, the source gives them in different places.

How the values were obtained:
AMPK A1/B1/G1 = AMPK A1/B1/G1 (Homo sapiens, UniProt Q13131); experiment: SelectScreen kinase assay
Method: (§1) Selectivity profiling assays were performed by the Invitrogen SelectScreen™ Services. […] The concentration of ATP was selected to be equal to the KM, unless indicated otherwise.

PRKG2 (PKG2) = PRKG2 (PKG2) (Homo sapiens, UniProt Q13237); experiment: SelectScreen kinase assay
Method: as §1

TGFBR2 = TGFBR2 (Homo sapiens, UniProt P37173); experiment: SelectScreen kinase assay
Sequence of TGFBR2 (P37173 23-567): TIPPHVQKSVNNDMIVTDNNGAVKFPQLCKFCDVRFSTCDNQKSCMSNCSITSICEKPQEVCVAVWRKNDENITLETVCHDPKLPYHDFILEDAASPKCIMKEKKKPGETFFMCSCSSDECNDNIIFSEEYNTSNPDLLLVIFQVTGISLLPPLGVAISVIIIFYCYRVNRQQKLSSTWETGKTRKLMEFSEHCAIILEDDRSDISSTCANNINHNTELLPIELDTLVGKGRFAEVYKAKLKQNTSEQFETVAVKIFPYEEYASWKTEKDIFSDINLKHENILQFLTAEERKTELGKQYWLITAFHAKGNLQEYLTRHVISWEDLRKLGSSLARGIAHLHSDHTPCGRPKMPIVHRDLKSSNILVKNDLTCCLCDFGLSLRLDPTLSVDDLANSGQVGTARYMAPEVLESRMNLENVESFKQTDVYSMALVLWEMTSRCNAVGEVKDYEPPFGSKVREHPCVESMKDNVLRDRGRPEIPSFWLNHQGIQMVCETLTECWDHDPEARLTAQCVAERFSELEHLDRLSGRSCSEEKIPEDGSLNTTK
Method: as §1

PRKCB1 (PKC beta I) = PRKCB1 (PKC beta I) (Homo sapiens, UniProt P05771); experiment: SelectScreen kinase assay
Method: as §1

FES^S700C HL-60 cells = experiment: Proliferation ratio during neutrophil differentiation; assay type: cell-based, human; conditions: 100 nM; Supplementary Figure 12d; individual replicates; listed as WEL028
AKT1 (PKB alpha) = AKT1 (PKB alpha) (Homo sapiens, UniProt P31749); experiment: SelectScreen kinase assay; conditions: for Inhibition at 1 µM (%): AKT1 (PKB alpha), ZLYTE, ATP Km app
Sequence of AKT1 (PKB alpha) (P31749 whole entry): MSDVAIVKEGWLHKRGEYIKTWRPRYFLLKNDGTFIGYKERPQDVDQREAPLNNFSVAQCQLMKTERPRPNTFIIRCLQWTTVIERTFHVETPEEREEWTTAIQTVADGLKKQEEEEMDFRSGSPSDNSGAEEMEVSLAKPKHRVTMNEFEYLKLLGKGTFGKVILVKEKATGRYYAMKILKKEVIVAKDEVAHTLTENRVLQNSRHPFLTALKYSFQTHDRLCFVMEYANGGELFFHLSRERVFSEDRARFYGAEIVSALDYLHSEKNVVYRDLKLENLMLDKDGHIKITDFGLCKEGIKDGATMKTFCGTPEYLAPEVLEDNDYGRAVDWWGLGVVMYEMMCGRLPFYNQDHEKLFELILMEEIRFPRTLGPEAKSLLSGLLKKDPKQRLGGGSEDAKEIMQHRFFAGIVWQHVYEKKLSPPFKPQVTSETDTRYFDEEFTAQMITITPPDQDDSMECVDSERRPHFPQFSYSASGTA
Method: as §1

ICK = ICK (Homo sapiens, UniProt Q9UPZ9); experiment: SelectScreen kinase assay
Method: as §1

CLK2 = CLK2 (Homo sapiens, UniProt P49760); experiment: SelectScreen kinase assay; conditions: 1 h, 1 μM WEL028, 1 h preincubation
Method: as §1

AURKC (Aurora C) = molecular target: T1, AURKC (Aurora C) (Homo sapiens, UniProt Q9UQB9); experiment: SelectScreen kinase assay
T1 sequence (Q9UQB9 1-309): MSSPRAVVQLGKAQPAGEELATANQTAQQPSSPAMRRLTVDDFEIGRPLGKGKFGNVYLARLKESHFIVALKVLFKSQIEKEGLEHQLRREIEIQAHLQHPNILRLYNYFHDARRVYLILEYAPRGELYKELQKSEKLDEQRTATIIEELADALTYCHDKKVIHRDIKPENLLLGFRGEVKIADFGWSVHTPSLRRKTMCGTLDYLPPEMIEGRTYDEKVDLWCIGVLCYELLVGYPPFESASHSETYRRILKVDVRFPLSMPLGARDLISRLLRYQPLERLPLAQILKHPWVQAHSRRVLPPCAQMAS
Method: as §1

KIT = KIT (Homo sapiens, UniProt P10721); experiment: SelectScreen kinase assay
Sequence of KIT (P10721 26-976): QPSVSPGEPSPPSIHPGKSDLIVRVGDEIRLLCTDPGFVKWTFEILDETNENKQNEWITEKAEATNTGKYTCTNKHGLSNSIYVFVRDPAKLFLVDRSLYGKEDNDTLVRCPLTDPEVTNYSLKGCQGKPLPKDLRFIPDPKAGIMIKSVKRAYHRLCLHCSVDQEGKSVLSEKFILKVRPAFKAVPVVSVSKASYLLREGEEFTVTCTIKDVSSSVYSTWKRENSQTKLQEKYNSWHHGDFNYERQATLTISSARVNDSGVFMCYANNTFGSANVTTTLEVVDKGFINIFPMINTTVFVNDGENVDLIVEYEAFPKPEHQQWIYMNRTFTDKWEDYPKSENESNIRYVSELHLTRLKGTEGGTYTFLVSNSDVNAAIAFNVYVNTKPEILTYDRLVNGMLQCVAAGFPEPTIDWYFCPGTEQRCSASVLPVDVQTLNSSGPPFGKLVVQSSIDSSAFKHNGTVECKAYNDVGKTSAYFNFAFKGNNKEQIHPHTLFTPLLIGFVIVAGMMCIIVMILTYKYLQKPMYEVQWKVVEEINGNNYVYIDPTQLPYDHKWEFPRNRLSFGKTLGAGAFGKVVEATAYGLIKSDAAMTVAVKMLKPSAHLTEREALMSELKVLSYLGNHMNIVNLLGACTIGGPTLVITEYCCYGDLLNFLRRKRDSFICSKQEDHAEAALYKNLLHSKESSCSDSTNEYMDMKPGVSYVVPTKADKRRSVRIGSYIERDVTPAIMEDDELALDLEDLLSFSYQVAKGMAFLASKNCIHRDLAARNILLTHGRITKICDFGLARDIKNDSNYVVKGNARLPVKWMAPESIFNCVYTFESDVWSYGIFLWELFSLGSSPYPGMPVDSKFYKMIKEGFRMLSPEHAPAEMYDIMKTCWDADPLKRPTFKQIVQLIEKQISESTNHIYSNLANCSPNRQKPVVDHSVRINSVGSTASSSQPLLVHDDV
Method: as §1

DMPK = DMPK (Homo sapiens, UniProt Q09013); experiment: SelectScreen kinase assay
Sequence of DMPK (Q09013 whole entry): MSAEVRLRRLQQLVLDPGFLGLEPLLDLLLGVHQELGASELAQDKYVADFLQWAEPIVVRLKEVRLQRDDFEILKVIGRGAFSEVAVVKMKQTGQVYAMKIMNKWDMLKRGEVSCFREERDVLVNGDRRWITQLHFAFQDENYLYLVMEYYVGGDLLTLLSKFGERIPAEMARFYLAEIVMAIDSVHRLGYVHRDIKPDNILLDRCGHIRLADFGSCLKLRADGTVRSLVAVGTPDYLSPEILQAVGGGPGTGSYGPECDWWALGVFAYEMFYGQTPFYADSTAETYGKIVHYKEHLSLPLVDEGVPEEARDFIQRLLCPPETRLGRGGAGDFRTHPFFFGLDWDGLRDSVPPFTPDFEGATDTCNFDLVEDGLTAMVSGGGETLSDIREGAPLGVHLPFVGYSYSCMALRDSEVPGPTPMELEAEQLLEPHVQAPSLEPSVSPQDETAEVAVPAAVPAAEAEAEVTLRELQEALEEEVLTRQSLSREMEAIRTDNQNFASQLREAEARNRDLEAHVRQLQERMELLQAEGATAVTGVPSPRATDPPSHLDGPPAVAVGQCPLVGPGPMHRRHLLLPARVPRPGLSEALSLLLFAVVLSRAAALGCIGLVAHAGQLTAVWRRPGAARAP
Method: as §1

PHKG2 = PHKG2 (Homo sapiens, UniProt P15735); experiment: SelectScreen kinase assay
Method: as §1

CDK8/cyclin C = CDK8/cyclin C (Homo sapiens, UniProt P49336); experiment: SelectScreen kinase assay; conditions: read-out: Inhibition at 1 µM (%)
Method: as §1

TTK = molecular target: T2, TTK (Homo sapiens, UniProt P33981); experiment: SelectScreen kinase assay
T2 sequence (P33981 1-857): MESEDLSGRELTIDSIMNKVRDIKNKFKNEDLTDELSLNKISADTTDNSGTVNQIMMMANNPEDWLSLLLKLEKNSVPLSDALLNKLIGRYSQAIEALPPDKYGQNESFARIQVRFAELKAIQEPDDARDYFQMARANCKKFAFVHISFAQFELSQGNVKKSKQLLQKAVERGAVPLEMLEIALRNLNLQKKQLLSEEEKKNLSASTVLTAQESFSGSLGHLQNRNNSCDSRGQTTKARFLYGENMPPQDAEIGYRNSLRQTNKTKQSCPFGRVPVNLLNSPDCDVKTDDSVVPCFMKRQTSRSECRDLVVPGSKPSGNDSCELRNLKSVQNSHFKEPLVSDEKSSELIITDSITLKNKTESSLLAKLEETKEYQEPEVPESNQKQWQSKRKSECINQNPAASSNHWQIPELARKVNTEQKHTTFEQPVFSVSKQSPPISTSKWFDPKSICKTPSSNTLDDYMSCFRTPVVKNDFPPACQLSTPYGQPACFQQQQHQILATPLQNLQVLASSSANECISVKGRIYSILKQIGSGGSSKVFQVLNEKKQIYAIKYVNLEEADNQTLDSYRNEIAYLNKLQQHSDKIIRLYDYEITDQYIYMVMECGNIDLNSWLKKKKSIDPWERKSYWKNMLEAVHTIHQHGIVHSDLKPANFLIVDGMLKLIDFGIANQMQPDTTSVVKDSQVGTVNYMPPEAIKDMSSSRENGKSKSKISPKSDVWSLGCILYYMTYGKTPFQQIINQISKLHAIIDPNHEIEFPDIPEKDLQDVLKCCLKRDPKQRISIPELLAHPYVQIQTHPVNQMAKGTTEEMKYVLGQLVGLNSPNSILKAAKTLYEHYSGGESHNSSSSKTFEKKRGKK
Method: as §1

DAPK1 = DAPK1 (Homo sapiens, UniProt P53355); experiment: SelectScreen kinase assay
Sequence of DAPK1 (P53355 whole entry): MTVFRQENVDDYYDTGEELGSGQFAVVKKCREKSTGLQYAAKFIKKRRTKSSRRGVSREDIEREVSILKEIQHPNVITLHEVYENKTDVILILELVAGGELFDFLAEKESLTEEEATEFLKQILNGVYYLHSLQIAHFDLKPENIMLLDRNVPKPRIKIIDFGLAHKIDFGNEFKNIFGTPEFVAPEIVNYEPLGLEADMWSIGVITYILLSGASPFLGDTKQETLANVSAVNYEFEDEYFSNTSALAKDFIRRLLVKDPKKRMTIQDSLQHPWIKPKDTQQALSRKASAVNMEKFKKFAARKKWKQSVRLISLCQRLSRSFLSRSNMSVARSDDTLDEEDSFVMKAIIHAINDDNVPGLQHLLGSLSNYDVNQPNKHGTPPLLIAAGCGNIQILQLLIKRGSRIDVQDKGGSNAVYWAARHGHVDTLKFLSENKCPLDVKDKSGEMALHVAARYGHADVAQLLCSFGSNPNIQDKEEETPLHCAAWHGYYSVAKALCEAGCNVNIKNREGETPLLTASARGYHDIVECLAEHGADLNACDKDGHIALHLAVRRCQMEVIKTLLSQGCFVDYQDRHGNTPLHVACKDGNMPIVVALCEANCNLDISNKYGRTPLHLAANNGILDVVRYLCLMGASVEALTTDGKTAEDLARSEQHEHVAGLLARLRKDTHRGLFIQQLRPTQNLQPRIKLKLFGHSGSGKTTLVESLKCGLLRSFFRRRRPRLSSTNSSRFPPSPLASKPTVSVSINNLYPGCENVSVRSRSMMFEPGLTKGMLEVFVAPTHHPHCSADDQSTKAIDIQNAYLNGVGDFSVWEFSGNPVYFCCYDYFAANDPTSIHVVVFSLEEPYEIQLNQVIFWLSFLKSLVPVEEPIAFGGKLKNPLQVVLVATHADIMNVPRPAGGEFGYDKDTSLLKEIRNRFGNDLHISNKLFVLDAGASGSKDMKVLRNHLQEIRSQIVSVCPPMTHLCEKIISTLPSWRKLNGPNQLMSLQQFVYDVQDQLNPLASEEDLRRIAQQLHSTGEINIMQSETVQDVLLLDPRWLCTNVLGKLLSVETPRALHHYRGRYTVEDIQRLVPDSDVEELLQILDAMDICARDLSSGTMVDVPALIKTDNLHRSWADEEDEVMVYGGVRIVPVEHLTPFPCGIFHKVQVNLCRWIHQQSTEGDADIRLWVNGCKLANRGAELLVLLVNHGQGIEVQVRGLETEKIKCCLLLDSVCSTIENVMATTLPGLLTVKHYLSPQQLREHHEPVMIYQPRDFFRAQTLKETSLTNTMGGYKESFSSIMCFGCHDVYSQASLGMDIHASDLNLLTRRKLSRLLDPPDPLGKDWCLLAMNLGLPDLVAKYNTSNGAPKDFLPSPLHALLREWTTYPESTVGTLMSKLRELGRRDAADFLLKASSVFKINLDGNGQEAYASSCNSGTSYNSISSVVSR
Method: as §1

ADCK3 = ADCK3 (Homo sapiens, UniProt Q8NI60); experiment: SelectScreen kinase assay
Method: as §1

SBK1 = SBK1 (Homo sapiens, UniProt Q52WX2); experiment: SelectScreen kinase assay
Sequence of SBK1 (Q52WX2 whole entry): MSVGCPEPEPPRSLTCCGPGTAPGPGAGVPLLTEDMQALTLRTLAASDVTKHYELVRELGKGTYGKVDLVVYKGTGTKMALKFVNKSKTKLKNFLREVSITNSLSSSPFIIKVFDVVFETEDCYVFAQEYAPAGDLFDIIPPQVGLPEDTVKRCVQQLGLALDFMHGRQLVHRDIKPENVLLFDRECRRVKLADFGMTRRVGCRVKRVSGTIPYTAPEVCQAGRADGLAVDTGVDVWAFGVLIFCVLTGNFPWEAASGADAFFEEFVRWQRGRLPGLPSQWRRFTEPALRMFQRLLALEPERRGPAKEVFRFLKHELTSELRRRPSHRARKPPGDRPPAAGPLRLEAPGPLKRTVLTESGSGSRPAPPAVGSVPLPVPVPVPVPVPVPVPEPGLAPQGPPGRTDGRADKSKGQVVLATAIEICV
Method: as §1

PI4K2B (PI4K2 beta) = PI4K2B (PI4K2 beta) (Homo sapiens, UniProt Q8TCG2); experiment: SelectScreen kinase assay; conditions: for Inhibition at 1 µM (%): PI4K2B (PI4K2 beta), Adapta, ATP 10
Sequence of PI4K2B (PI4K2 beta) (Q8TCG2 whole entry): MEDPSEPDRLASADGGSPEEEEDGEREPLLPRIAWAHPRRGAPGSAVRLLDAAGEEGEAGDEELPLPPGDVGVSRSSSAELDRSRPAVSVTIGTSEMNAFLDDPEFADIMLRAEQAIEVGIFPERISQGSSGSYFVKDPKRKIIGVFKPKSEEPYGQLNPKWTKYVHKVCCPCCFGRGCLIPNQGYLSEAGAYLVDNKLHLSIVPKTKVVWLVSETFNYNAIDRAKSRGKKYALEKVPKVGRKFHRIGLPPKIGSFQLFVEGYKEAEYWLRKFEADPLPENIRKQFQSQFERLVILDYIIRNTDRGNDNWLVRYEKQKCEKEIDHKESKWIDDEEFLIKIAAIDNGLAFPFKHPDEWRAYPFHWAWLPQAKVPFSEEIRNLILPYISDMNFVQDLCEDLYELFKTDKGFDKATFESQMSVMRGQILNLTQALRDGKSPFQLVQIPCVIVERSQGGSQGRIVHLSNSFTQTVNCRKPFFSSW
Method: as §1

[1] = 1 h, 1 μM WEL028, 1 h preincubation
[2] = 1 µM, LanthaScreen Binding, listed as WEL028, 1 µM
[3] = read-out: Inhibition at 1 µM (%), 1 µM, LanthaScreen Binding

C#CCOc1ccc(Nc2ncc(Cl)c(Nc3ccccc3NC(=O)C=C)n2)c(OC)c1 [Compound 6]
inhibition at 1 µM (AMPK A1/B1/G1; [1]): 13%
Inhibition at 1 µM (%) (AMPK A1/B1/G1; AMPK A1/B1/G1, 1 µM, ZLYTE, ATP Km app): 21%
Inhibition at 1 µM (%) (PRKG2 (PKG2); 1 µM, ZLYTE, ATP Km app): 13%
inhibition at 1 µM (PRKG2 (PKG2); [1]): 4%
Inhibition at 1 µM (%) (TGFBR2; [2]): 11%
inhibition at 1 µM (TGFBR2; [1]): 14%
inhibition at 1 µM (TGFBR2; [3]): 17%
inhibition at 1 µM (PRKCB1 (PKC beta I); [1]): 16%
Inhibition at 1 µM (%) (PRKCB1 (PKC beta I); PRKCB1 (PKC beta I), 1 µM, ZLYTE, ATP Km app): 25%
Proliferation ratio (FES^S700C HL-60 cells): 1.625 and 1.925 and 1.9
inhibition at 1 µM (AKT1 (PKB alpha); [1]): -3%
Inhibition at 1 µM (%) (AKT1 (PKB alpha)): -2%
Inhibition at 1 µM (%) (AKT1 (PKB alpha); listed as WEL028, 1 µM): -4%
inhibition at 1 µM (ICK; [1]): 7%
inhibition at 1 µM (ICK; read-out: Inhibition at 1 µM (%), ICK, 1 µM, LanthaScreen Binding): 8%
inhibition at 1 µM (CLK2): 1%
inhibition at 1 µM (AURKC (Aurora C); [1]): 37%
Inhibition at 1 µM (%) (AURKC (Aurora C); AURKC (Aurora C), 1 µM, ZLYTE, ATP Km app, listed as WEL028, 1 µM): 41%
inhibition at 1 µM (AURKC (Aurora C); read-out: Inhibition at 1 µM (%), AURKC (Aurora C), 1 µM, ZLYTE, ATP Km app): 33%
inhibition at 1 µM (KIT; [1]): 18%
Inhibition at 1 µM (%) (KIT; KIT, 1 µM, ZLYTE, ATP Km app, listed as WEL028, 1 µM): 16%
inhibition at 1 µM (KIT; read-out: Inhibition at 1 µM (%), KIT, 1 µM, ZLYTE, ATP Km app): 21%
inhibition at 1 µM (DMPK; [1]): 3%
Inhibition at 1 µM (%) (DMPK; DMPK, 1 µM, LanthaScreen Binding, listed as WEL028, 1 µM): 1% and 5%
inhibition at 1 µM (PHKG2; [1]): 0%
Inhibition at 1 µM (%) (PHKG2; PHKG2, 1 µM, ZLYTE, ATP Km app): 11%
inhibition at 1 µM (CDK8/cyclin C): 0%
IC50 (TTK): 631 nM
Inhibition at 1 µM (%) (TTK; [2]): 76%
inhibition at 1 µM (TTK; [1]): 77%
Apparent fold selectivity (TTK; IC50 on that kinase divided by IC50 on FES^S700C): 152 fold
inhibition at 1 µM (TTK; [3]): 77%
inhibition at 1 µM (DAPK1; [1]): 12%
Inhibition at 1 µM (%) (DAPK1; DAPK1, 1 µM, Adapta, ATP Km app, listed as WEL028, 1 µM): 13%
inhibition at 1 µM (DAPK1; read-out: Inhibition at 1 µM (%), DAPK1, 1 µM, Adapta, ATP Km app): 12%
inhibition at 1 µM (ADCK3; 1 h): 2%
inhibition at 1 µM (ADCK3; read-out: Inhibition at 1 µM (%)): 2%
Inhibition at 1 µM (%) (SBK1; 1 µM, ZLYTE, ATP Km app, listed as WEL028, 1 µM): 1% and 8%
inhibition at 1 µM (SBK1; [1]): 5%
inhibition at 1 µM (PI4K2B (PI4K2 beta); [1]): 2%
Inhibition at 1 µM (%) (PI4K2B (PI4K2 beta)): 3%
Inhibition at 1 µM (%) (PI4K2B (PI4K2 beta); listed as WEL028, 1 µM): 0%
